Laboratory results as given in article PMC4890880 (ACS infectious diseases, 2016).
Like-named read-outs stand apart in the source and are kept apart here.

Key:
HepG2-A16-CD81EGFP cells = conditions: for IC50: read-out: Tox_IC50, HepG2 cytotoxicity
[1] = system: Plasmodium berghei (Pb-Luc) exoerythrocytic-stage parasites; conditions: for IC50: read-out: PbLuc_IC50
[2] = 2nd round, maximal inhibition in dose series
[3] = sheet 2nd round, maximal inhibition in dose response
[4] = first series of columns, fraction of control
[5] = sheet 2nd round, Pb-Luc exoerythrocytic stage, 10-point dose response, top concentration 10
[6] = second series of columns (replicate), fraction of control
[7] = first series, fraction of control
[8] = second series, fraction of control

With C[C@@H]1CN([C@H](C)CO)C(=O)c2cccc(NC(=O)c3ccc(-c4nccs4)cc3)c2O[C@H]1CN(C)C(=O)Nc1ccc(C(F)(F)F)cc1 [BRD-K64517877-001-01-9] the “Tox_max_inhibition (%)” value (HepG2-A16-CD81EGFP cells; [2]) was 9%, the IC50 (HepG2-A16-CD81EGFP cells; 2nd round, unit inferred) was greater than 10 µM and the “PbLuc_max_inhibition (%)” value [1, 2] was 27%. The “normalized signal at 0.000508053 (first series)” value ([1]; concentration 0.000508053, first replicate series, fraction of control) was 0.8077, the “normalized signal at 0.000508053 (second series)” value ([1]; concentration 0.000508053, second replicate series, fraction of control) was 1.002 and the “normalized signal at 0.00152416 (first series)” value ([1]; concentration 0.00152416, first replicate series, fraction of control) was 0.8666. The “normalized signal at 0.00152416 (second series)” value ([1]; concentration 0.00152416, second replicate series, fraction of control) was 0.9304, the “normalized signal at 0.00457247 (first series)” value ([1]; concentration 0.00457247, first replicate series, fraction of control) was 0.8925 and the “normalized signal at 0.00457247 (second series)” value ([1]; concentration 0.00457247, second replicate series, fraction of control) was 0.7834. For the same compound, the “normalized signal at 0.0137174 (first series)” value ([1]; concentration 0.0137174, first replicate series, fraction of control) was 1.197, the “normalized signal at 0.0137174 (second series)” value ([1]; concentration 0.0137174, second replicate series, fraction of control) was 0.7634 and the “normalized signal at 0.0411523 (first series)” value ([1]; concentration 0.0411523, first replicate series, fraction of control) was 0.9517. The “normalized signal at 0.0411523 (second series)” value ([1]; concentration 0.0411523, second replicate series, fraction of control) was 0.9123, the “normalized signal at 0.123457 (first series)” value ([1]; concentration 0.123457, first replicate series, fraction of control) was 1.1239 and the “normalized signal at 0.123457 (second series)” value ([1]; concentration 0.123457, second replicate series, fraction of control) was 0.9202. For the same compound, the “normalized signal at 0.37037 (first series)” value ([1]; concentration 0.37037, first replicate series, fraction of control) was 0.912, the “normalized signal at 0.37037 (second series)” value ([1]; concentration 0.37037, second replicate series, fraction of control) was 0.776 and the “normalized signal at 1.11111 (first series)” value ([1]; concentration 1.11111, first replicate series, fraction of control) was 0.8174. For the same compound, the “normalized signal at 1.11111 (second series)” value ([1]; concentration 1.11111, second replicate series, fraction of control) was 0.8082, the “normalized signal at 3.33333 (first series)” value ([1]; concentration 3.33333, first replicate series, fraction of control) was 0.9935 and the “normalized signal at 3.33333 (second series)” value ([1]; concentration 3.33333, second replicate series, fraction of control) was 0.7269. The “normalized signal at 10 (first series)” value ([1]; concentration 10, first replicate series, fraction of control) was 1.005, the “normalized signal at 10 (second series)” value ([1]; concentration 10, second replicate series, fraction of control) was 0.7551 and the IC50 ([1]; 2nd round, Broad DOS compounds, unit not printed (dose series head 10 to 0.000508053)) was greater than 10 µM.
In the case of CC(C)NC(=O)NCC[C@@H]1CC[C@H](NS(=O)(=O)c2ccc(Oc3ccccc3)cc2)[C@@H](CO)O1 [BRD-K66184091-001-01-6], the IC50 (HepG2-A16-CD81EGFP cells; sheet 2nd round) is reported as greater than 10 µM, the “Tox_max_inhibition (%)” value (HepG2-A16-CD81EGFP cells; [3]) is reported as 7% and the “normalized signal at concentration 0.000508053” value [1, 4] is reported as 0.909. The “normalized signal at concentration 0.00152416” value [1, 4] was 1.056, the “normalized signal at concentration 0.00457247” value [1, 4] was 1.03 and the “normalized signal at concentration 0.0137174” value [1, 4] was 0.8503. The “normalized signal at concentration 0.0411523” value [1, 4] was 0.8577, the “normalized signal at concentration 0.123457” value [1, 4] was 0.9757 and the “normalized signal at concentration 0.37037” value [1, 4] was 0.9475. For the same compound, the “normalized signal at concentration 1.11111” value [1, 4] was 1.003, the “normalized signal at concentration 3.33333” value [1, 4] was 1.282 and the “normalized signal at concentration 10” value [1, 4] was 1.243. The IC50 [1, 5] was greater than 10 µM, the “normalized signal at concentration 0.000508053” value [1, 6] was 0.9487 and the “normalized signal at concentration 0.00152416” value [1, 6] was 0.9281. For the same compound, the “normalized signal at concentration 0.00457247” value [1, 6] was 0.7932, the “normalized signal at concentration 0.0137174” value [1, 6] was 0.7902 and the “normalized signal at concentration 0.0411523” value [1, 6] was 0.9772. The “normalized signal at concentration 0.123457” value [1, 6] was 0.9341, the “normalized signal at concentration 0.37037” value [1, 6] was 0.8543 and the “normalized signal at concentration 1.11111” value [1, 6] was 0.8244. The “normalized signal at concentration 3.33333” value [1, 6] was 0.9837, the “normalized signal at concentration 10” value [1, 6] was 0.9187 and the “PbLuc_max_inhibition (%)” value [1, 3] was 21%.
For COc1cccc(S(=O)(=O)N2CCCCN3[C@H](CO)[C@H](c4ccc(C#CCC(C)C)cc4)[C@H]3C2)c1 [BRD-K69197522-001-01-4], the IC50 (HepG2-A16-CD81EGFP cells; sheet 2nd round) was greater than 10 µM, the “Tox_max_inhibition (%)” value (HepG2-A16-CD81EGFP cells; [3]) was 6.65% and the “normalized signal at concentration 0.000508053” value [1, 4] was 0.7703. The “normalized signal at concentration 0.00152416” value [1, 4] was 0.9681, the “normalized signal at concentration 0.00457247” value [1, 4] was 1.135 and the “normalized signal at concentration 0.0137174” value [1, 4] was 0.9046. For the same compound, the “normalized signal at concentration 0.0411523” value [1, 4] was 0.9718, the “normalized signal at concentration 0.123457” value [1, 4] was 0.7468 and the “normalized signal at concentration 0.37037” value [1, 4] was 1.034. For the same compound, the “normalized signal at concentration 1.11111” value [1, 4] was 0.9136, the “normalized signal at concentration 3.33333” value [1, 4] was 0.9728 and the “normalized signal at concentration 10” value [1, 4] was 0.6517. For the same compound, the IC50 [1, 5] was greater than 10 µM, the “normalized signal at concentration 0.000508053” value [1, 6] was 0.9237 and the “normalized signal at concentration 0.00152416” value [1, 6] was 0.8984. For the same compound, the “normalized signal at concentration 0.00457247” value [1, 6] was 1.009, the “normalized signal at concentration 0.0137174” value [1, 6] was 0.9117 and the “normalized signal at concentration 0.0411523” value [1, 6] was 0.9735. For the same compound, the “normalized signal at concentration 0.123457” value [1, 6] was 1.068, the “normalized signal at concentration 0.37037” value [1, 6] was 0.8113 and the “normalized signal at concentration 1.11111” value [1, 6] was 0.8704. For the same compound, the “normalized signal at concentration 3.33333” value [1, 6] was 1.117, the “normalized signal at concentration 10” value [1, 6] was 0.6736 and the “PbLuc_max_inhibition (%)” value [1, 3] was 35%.
C[C@H](CO)N1C[C@H](C)[C@@H](CN(C)C(=O)Nc2ccc(C(F)(F)F)cc2)Oc2c(NC(=O)c3ccc(-c4nccs4)cc3)cccc2C1=O [BRD-K70940716-001-01-0] was tested, and the IC50 (HepG2-A16-CD81EGFP cells; sheet 2nd round) was greater than 10 µM, the “Tox_max_inhibition (%)” value (HepG2-A16-CD81EGFP cells; [3]) was 7% and the “normalized signal at concentration 10” value ([1]; first series of dose-response columns, fraction of control) was 1.176. For the same compound, the “normalized signal at concentration 0.000508053” value [1, 7] was 0.7879, the “normalized signal at concentration 0.00152416” value [1, 7] was 0.8471 and the “normalized signal at concentration 0.00457247” value [1, 7] was 0.871. The “normalized signal at concentration 0.0137174” value [1, 7] was 0.8913, the “normalized signal at concentration 0.0411523” value [1, 7] was 0.831 and the “normalized signal at concentration 0.123457” value [1, 7] was 0.9514. The “normalized signal at concentration 0.37037” value [1, 7] was 0.8506, the “normalized signal at concentration 1.11111” value [1, 7] was 0.9296 and the “normalized signal at concentration 3.33333” value [1, 7] was 1.136. For the same compound, the IC50 ([1]; sheet 2nd round, Broad compounds, dose response) was greater than 10 µM, the “normalized signal at concentration 10” value ([1]; second series of dose-response columns, fraction of control) was 1.096 and the “normalized signal at concentration 0.000508053” value [1, 8] was 1.058. The “normalized signal at concentration 0.00152416” value [1, 8] was 0.9924, the “normalized signal at concentration 0.00457247” value [1, 8] was 0.8277 and the “normalized signal at concentration 0.0137174” value [1, 8] was 1.075. The “normalized signal at concentration 0.0411523” value [1, 8] was 1.139, the “normalized signal at concentration 0.123457” value [1, 8] was 0.9792 and the “normalized signal at concentration 0.37037” value [1, 8] was 1.201. The “normalized signal at concentration 1.11111” value [1, 8] was 1.005, the “normalized signal at concentration 3.33333” value [1, 8] was 1.1649 and the “PbLuc_max_inhibition (%)” value [1, 3] was 21%.
